The target of assay [1] is T1, hGKRP_C-His (Homo sapiens, UniProt Q14397).
T1 construct: made in house; host or cells: High FIVE insect cells (baculovirus, BAC-to-BAC)
T1 sequence (Q14397 with tags, fused parts or gaps): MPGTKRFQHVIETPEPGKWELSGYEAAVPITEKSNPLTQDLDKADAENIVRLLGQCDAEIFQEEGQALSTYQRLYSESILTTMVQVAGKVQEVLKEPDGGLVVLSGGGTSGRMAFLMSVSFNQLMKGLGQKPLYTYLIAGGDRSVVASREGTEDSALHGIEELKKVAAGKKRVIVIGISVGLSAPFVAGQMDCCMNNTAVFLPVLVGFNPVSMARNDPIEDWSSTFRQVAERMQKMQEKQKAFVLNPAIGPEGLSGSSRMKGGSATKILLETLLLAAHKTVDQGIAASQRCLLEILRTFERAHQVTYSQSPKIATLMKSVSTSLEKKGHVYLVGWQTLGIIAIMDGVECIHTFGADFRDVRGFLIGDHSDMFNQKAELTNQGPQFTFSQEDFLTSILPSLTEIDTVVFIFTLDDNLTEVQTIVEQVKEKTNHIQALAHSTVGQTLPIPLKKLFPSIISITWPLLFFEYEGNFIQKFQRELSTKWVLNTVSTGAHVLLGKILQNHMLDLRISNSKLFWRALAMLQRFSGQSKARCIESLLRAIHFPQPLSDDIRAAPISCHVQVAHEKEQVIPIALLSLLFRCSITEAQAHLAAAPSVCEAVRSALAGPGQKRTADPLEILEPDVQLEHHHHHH
The experiment in a line: amide hydrogen (H/D) exchange, ligand-bound vs apo-GKRP. The assay is classed as binding. To be noted: 30 min H/D exchange; six regions; compared to apo-GKRP. How it is done:
This experiment was performed to map the potential ligand binding sites via the amide hydrogen exchange behaviour of apo-GKRP in comparison to ligand-bound GKRP.
Amide hydrogen (H/D) exchange was initiated by a 20-fold dilution of 30 pmol hGKRP_C-His with or without ligand into D2O containing 100 mM HEPES, pD 7.4, 200 mM KCl, 100 mM MgCl2, and 2 mM DTT and incubated at room temperature.
After various time points (10 sec, 1 min and 30 min), the exchange reaction was quenched by decreasing the temperature to 0° C. and the pH to 2.5 with quench buffer (500 mM KH2PO4/H3PO4, pH 2.5, 2 M Urea, and 2 mM TCEP). Quenched samples were directly injected into an HPLC setup and analyzed on an electrospray ionization-quadrupole time of flight-mass spectrometer (QSTAR XL, Applied Biosystems) as described by Rist et al. (2003): Mapping temperature-induced conformational changes in the Escherichia coli heat shock transcription factor sigma 32 by amide hydrogen exchange, J. Biol. Chem., 278, 51415-51421.
The HPLC setup contained a column (2×20 mm) packed with Poroszyme immobilized pepsin (Applied Biosystems, Darmstadt, Germany). […] The deuterium content of the peptides was calculated by using the average mass difference between the isotopic envelopes of the deuterated and the undeuterated peptides. […]

Another assay concerns the target T2, rat GKRP (Rattus norvegicus, UniProt Q07071).
T2 sequence (Q07071 1-627): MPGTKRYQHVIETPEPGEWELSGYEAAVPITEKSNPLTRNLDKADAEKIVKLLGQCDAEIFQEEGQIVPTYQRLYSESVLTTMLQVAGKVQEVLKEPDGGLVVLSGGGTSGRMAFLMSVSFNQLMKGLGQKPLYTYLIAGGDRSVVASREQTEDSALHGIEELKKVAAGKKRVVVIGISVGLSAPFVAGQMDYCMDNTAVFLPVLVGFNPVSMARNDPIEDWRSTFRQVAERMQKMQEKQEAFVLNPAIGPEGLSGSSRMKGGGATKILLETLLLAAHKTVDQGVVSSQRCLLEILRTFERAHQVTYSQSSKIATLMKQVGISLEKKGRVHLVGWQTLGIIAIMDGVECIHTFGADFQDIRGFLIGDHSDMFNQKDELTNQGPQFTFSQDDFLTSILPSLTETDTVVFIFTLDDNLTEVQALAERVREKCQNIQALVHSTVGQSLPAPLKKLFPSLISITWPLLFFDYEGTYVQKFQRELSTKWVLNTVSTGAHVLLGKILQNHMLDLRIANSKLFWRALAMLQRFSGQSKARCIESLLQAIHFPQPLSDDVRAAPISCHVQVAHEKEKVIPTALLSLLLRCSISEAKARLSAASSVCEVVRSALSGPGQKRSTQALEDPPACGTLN
To be noted: Van Schaftingen 1989, Veiga-da-Cunha and Van Schaftingen 2002; cited from earlier work.

Another assay has as its target T3, hGKRP_C-His_K326T/K327T (Homo sapiens, UniProt Q14397, K326T/K327T).
T3 construct: made in house; host or cells: High FIVE insect cells (baculovirus, BAC-to-BAC)
T3 sequence (Q14397 with tags, fused parts or gaps K326T/K327T): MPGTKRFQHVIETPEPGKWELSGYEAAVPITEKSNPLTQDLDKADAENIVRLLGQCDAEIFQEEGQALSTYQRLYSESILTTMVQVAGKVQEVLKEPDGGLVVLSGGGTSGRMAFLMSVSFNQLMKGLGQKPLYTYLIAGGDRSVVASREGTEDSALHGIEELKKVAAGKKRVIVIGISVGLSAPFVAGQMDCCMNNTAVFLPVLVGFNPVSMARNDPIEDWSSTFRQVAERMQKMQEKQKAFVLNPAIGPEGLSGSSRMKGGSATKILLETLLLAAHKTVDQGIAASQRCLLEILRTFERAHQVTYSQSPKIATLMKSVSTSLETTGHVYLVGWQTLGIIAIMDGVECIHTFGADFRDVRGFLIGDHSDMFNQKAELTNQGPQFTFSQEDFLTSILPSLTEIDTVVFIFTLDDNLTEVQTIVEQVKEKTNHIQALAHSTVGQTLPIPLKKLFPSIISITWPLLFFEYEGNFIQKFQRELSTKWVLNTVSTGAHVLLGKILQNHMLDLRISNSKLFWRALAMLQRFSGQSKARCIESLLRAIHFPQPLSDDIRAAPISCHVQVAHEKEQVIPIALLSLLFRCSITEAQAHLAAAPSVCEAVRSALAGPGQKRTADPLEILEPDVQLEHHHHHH
The assay is described as follows: F1P competition with F6P in the coupled GK assay, using hGKRP_C-His_K326T/K327T. Particulars: in the presence of 6 μM F6P, read-out: EC50 of F1P to increase apparent GK activity (inactive GK-GKRP-F6P complex towards free GK). The class given is biochemical. The source says:
(§1) GKRP preparations according to examples 1 and 2 have been examined with respect to their enzymatic activity. The applied enzymatic assay measures the effect of GKRP on glucokinase activity in the form of a glucose-6-phosphate dehydrogenase coupled assay at room temperature which is a modification of the method described by Van Schaftingen and Brocklehurst et al. (Van Schaftingen, E. (1989): A protein from rat liver confers to glucokinase the property of being antagonistically regulated by fructose 6-phosphate and fructose 1-phosphate; Eur. J. Biochem., 179, 179-184; Brocklehurst, K. J., Davies, R. A. and Agius, L. (2004): Differences in regulatory properties between human and rat glucokinase regulatory protein; Biochem. J., 378, 693-697).
(§2) The reaction mixture contained 150 mM KCl, 100 mM Hepes, 1 mM ATP, 1 mM MgCl2, 2 mM NADP^+, 2 mM dithiothreitol, pH 7.4, 5 units/ml glucose-6-phosphate dehydrogenase, 0.5 mg/ml BSA, 10 mM glucose, 6 μM fructose 6-P, 15 nM human liver glucokinase and 100 nM of the respective GKRP. The enzymatic reaction was started by the addition of ATP and glucose. The increase in optical density was measured at a wavelength 340 nm over 10 minutes. From these kinetic data, the slope was calculated and graphically depicted.
(§3) This effect was investigated using both hGKRP_C-His as well as hGKRP_C-His_K326T/K327T. […]

Assay [2] has as its target T1, hGKRP_C-His. The experiment in a line: F1P competition with F6P in the coupled GK assay, using hGKRP_C-His. The class given is biochemical. Particulars: in the presence of 6 μM F6P, read-out: EC50 of F1P to increase apparent GK activity (inactive GK-GKRP-F6P complex towards free GK).
From the text: as §1, §2, §3

In assay [3] the target is T4, human liver glucokinase (human, UniProt P35557-2 1-466, limits assumed).
T4 sequence (looked up): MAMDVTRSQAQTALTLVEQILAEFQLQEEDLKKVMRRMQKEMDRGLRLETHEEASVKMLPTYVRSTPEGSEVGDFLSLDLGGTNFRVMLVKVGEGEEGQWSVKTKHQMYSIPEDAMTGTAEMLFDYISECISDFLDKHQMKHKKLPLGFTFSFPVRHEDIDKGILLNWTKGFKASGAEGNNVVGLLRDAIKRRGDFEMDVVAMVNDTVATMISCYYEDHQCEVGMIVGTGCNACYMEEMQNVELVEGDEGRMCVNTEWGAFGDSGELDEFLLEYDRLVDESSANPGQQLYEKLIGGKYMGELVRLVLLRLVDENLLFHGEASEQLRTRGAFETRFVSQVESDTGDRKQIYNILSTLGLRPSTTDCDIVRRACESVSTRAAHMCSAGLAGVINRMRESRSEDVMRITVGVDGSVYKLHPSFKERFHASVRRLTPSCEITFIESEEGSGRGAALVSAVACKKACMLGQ
The experiment in a line: cell-based or functional assay.

The subject of assay [4] is human liver glucokinase. The assay is described as follows: glucose-6-phosphate dehydrogenase coupled assay measuring the effect of GKRP on glucokinase activity. The assay is classed as biochemical. Particulars: GKRP dosed in excess over GK (15 nM), alone.
From the text: as §1, §2

Where only a bound is given, the exact number is not on record here.

As usually defined, the Kd is the equilibrium constant for the complex coming apart. Consider `O=C(CO)[C@@H](O)[C@H](O)[C@H](O)COP(=O)(O)O` [F6P, fructose-6-phosphate], for which the “protection of GKRP regions against H/D exchange by the ligand” value at hGKRP_C-His [1] is recorded as “protection against H/D exchange”. Also, the Kd on rat GKRP is 20000 nM.
By EC50 is commonly meant the concentration at which the effect is half-maximal. In the case of `O=C(COP(=O)(O)O)[C@@H](O)[C@H](O)[C@H](O)CO` [F1P, fructose-1-phosphate], the concentration giving a half-maximal response (EC50) came out at 5080 ± 1380 nM at hGKRP_C-His_K326T/K327T and 6280 ± 1070 nM at hGKRP_C-His [2]. The “protection of GKRP regions against H/D exchange by the ligand” value at hGKRP_C-His [1] is recorded as “protection against H/D exchange”. Besides, the Kd at rat GKRP is 1000 nM.

B1: hGKRP_C-His (human glucokinase regulatory protein with C-terminal LEHHHHHH octapeptide) (other)
chain: MPGTKRFQHVIETPEPGKWELSGYEAAVPITEKSNPLTQDLDKADAENIVRLLGQCDAEIFQEEGQALSTYQRLYSESILTTMVQVAGKVQEVLKEPDGGLVVLSGGGTSGRMAFLMSVSFNQLMKGLGQKPLYTYLIAGGDRSVVASREGTEDSALHGIEELKKVAAGKKRVIVIGISVGLSAPFVAGQMDCCMNNTAVFLPVLVGFNPVSMARNDPIEDWSSTFRQVAERMQKMQEKQKAFVLNPAIGPEGLSGSSRMKGGSATKILLETLLLAAHKTVDQGIAASQRCLLEILRTFERAHQVTYSQSPKIATLMKSVSTSLEKKGHVYLVGWQTLGIIAIMDGVECIHTFGADFRDVRGFLIGDHSDMFNQKAELTNQGPQFTFSQEDFLTSILPSLTEIDTVVFIFTLDDNLTEVQTIVEQVKEKTNHIQALAHSTVGQTLPIPLKKLFPSIISITWPLLFFEYEGNFIQKFQRELSTKWVLNTVSTGAHVLLGKILQNHMLDLRISNSKLFWRALAMLQRFSGQSKARCIESLLRAIHFPQPLSDDIRAAPISCHVQVAHEKEQVIPIALLSLLFRCSITEAQAHLAAAPSVCEAVRSALAGPGQKRTADPLEILEPDVQLEHHHHHH
As to B1, in the assay with human liver glucokinase [3], the “IC50 of inhibition of GK activity in the presence of 6 µM fructose 6-phosphate” value came out at 74 nM and the “IC50 of inhibition of apparent GK enzymatic activity (glucose-6-phosphate dehydrogenase coupled assay), GKRP alone” value amounted to 124 nM. In addition, the “inhibition of the apparent GK enzymatic activity” value in the assay with human liver glucokinase [4] is given as more than 90%.

B2: hGKRP_C-His_K326T/K327T (other)
chain: MPGTKRFQHVIETPEPGKWELSGYEAAVPITEKSNPLTQDLDKADAENIVRLLGQCDAEIFQEEGQALSTYQRLYSESILTTMVQVAGKVQEVLKEPDGGLVVLSGGGTSGRMAFLMSVSFNQLMKGLGQKPLYTYLIAGGDRSVVASREGTEDSALHGIEELKKVAAGKKRVIVIGISVGLSAPFVAGQMDCCMNNTAVFLPVLVGFNPVSMARNDPIEDWSSTFRQVAERMQKMQEKQKAFVLNPAIGPEGLSGSSRMKGGSATKILLETLLLAAHKTVDQGIAASQRCLLEILRTFERAHQVTYSQSPKIATLMKSVSTSLETTGHVYLVGWQTLGIIAIMDGVECIHTFGADFRDVRGFLIGDHSDMFNQKAELTNQGPQFTFSQEDFLTSILPSLTEIDTVVFIFTLDDNLTEVQTIVEQVKEKTNHIQALAHSTVGQTLPIPLKKLFPSIISITWPLLFFEYEGNFIQKFQRELSTKWVLNTVSTGAHVLLGKILQNHMLDLRISNSKLFWRALAMLQRFSGQSKARCIESLLRAIHFPQPLSDDIRAAPISCHVQVAHEKEQVIPIALLSLLFRCSITEAQAHLAAAPSVCEAVRSALAGPGQKRTADPLEILEPDVQLEHHHHHH
Consider B2, for which, in the assay with human liver glucokinase [3], the “IC50 of decrease of apparent GK activity in the presence of 6 µM F6P” value was determined as 71 nM and the “IC50 of decrease of apparent GK activity, GKRP alone” value turned out to be 116 nM.

The values above are taken from patent publication US20130295666A1, “CRYSTALS OF GLUCOKINASE REGULATORY PROTEIN (GKRP)” (Boehringer Ingelheim International GmbH, priority 2011, published 2013).
